Experimental data reported in patent US9133117B2, “Triple reuptake inhibitors and methods of their use” (SUNOVION PHARMACEUTICALS INC., priority 2008, dated 2015).
“Also recorded” adds a separate entry of the source.

Assays:
[1] = test system: formalin-induced flinching behavior; assay: Formalin pain model (flinching behavior); assay type: in vivo, rat; settings: 60 min before formalin
Experimental: Effects of (3aR,6aS)-3a-(3,4-Dichlorophenyl)octahydrocyclopenta[c]pyrrole on acute and persistent inflammatory pain were evaluated in male rats. Pain was induced experimentally by application of a chemical irritant, formalin, which results in a biphasic behavioral response that includes both early (Phase 1, 0-9 minutes) and late (Phase 2, 10-60 minutes) phase flinching behavior. The early phase response is considered to be the result of C-fiber activation while the late phase appears to be dependent on the combination of an inflammatory response in the tissue and functional changes in the dorsal horn of the spinal cord.
Male rats (Sprague-Dawley, 272-315 g, Harlan) were housed 4 animals per cage in a temperature-controlled environment on a 12-hour light-dark cycle with food and water available ad libitum. Animals were allowed to acclimate to the facility for at least 5 days before testing. On the day of the study, a flexible, light-weight, ‘C’-shaped metal band was applied to one hind paw and the rat was dosed orally (PO, 3 mL/kg, via gavage) or intraperitoneally (IP, 1 mL/kg) with vehicle (50 mM acetate buffer (pH 4.5)), (3aR,6aS)-3a-(3,4-dichlorophenyl)octahydrocyclopenta[c]pyrrole or gabapentin. […] Formalin-induced flinching behavior was recorded for 60 minutes.

[2] = Brain and plasma levels following oral administration; assay type: in vivo; settings: 10 mg/kg

SMILES | effect on formalin-induced flinching behavior ([1]; male rats, 3, 10 and 30 mg/kg PO, phase I 0-9 min, phase II 10-60 min) | levels of tested compounds in brain (order of lines in FIG. 1) [2] | ratio of brain and plasma levels (order of lines in FIG. 2) [2] | effect on formalin-induced flinching behavior (positive control) ([1]; male rats, 100 mg/kg IP)
Clc1ccc([C@@]23CCC[C@@H]2CNC3)cc1Cl [(3aR,6aS)-3a-(3,4-Dichlorophenyl)octahydrocyclopenta[c]pyrrole] | significant, dose-related decrease in flinching behavior during phases I and II; also recorded: significantly and dose-dependently attenuated formalin-induced flinching behavior in a non-selective manner | – | – | –
CN1C[C@H]2CCC[C@@]2(c2ccc(Cl)c(Cl)c2)C1 [(3aR,6aS)-3a-(3,4-dichlorophenyl)-2-methyloctahydrocyclopenta[c]pyrrole] | – | fourth line | fourth line | –
CN1C[C@H]2CCCC[C@@]2(c2ccc(Cl)c(Cl)c2)C1 [(3aR,7aS)-3a-(3,4-Dichlorophenyl)-2-methyloctahydro-1H-isoindole] | – | top line | second line | –
CN1C[C@@H]2CCC[C@]2(c2ccc(Cl)c(Cl)c2)C1 [(3aS,6aR)-3a-(3,4-dichlorophenyl)-2-methyloctahydrocyclopenta[c]pyrrole] | – | third line | third line | –
CN1C[C@@H]2CCCC[C@]2(c2ccc(Cl)c(Cl)c2)C1 [(3aS,7aR)-3a-(3,4-Dichlorophenyl)-2-methyloctahydro-1H-isoindole] | – | second line | top line | –
NCC1(CC(=O)O)CCCCC1 [Gabapentin, reference compound] | – | – | – | significant and selective attenuation of phase II formalin-induced flinching behavior
